Results on 14 molecules are retold here after PMC5075052, “Modulation of the Substitution Pattern of 5-Aryl-2-Aminoimidazoles Allows Fine-Tuning of Their Antibiofilm Activity Spectrum and Toxicity” (Antimicrobial Agents and Chemotherapy, 2016).

Like-named read-outs stand apart in the source and are kept apart here.

In one data set the test system is S. liquefaciens MG44. Briefly: Monospecies bacterial biofilm inhibition, static peg assay. The format is cell-based, Serratia liquefaciens. To be noted: Serratia liquefaciens. Here is the method: (§1) A static peg assay, described previously ([27], [74]), was used for bacterial biofilm formation. The Calgary biofilm device consists of a platform carrying 96 polystyrene pegs (Nunc no. 445497) that fits as a microtiter plate lid, with 1 peg hanging into each microtiter plate well (Nunc no. 269789). Twofold serial dilutions of the compounds (dissolved in 100% dimethyl sulfoxide [DMSO] or ethanol) in 100 μl liquid broth (TSB diluted 1/20) per well were prepared in the microtiter plate in duplicate or triplicate with a maximum concentration of 1,600 μM and a minimum concentration of 0.8 μM. Subsequently, an overnight culture of S. Typhimurium ATCC 14028, P. aeruginosa PA14, E. coli TG1, S. epidermidis, S. aureus SH1000, or S. aureus ATCC 6538 (all grown in LB) was diluted 1:100 into TSB diluted 1/20 (or TSB for S. epidermidis, S. aureus SH1000, and S. aureus ATCC 6538), whereas overnight cultures of S. liquefaciens MG44 and B. cepacia LMG1222T were diluted 1:50 into TSB diluted 1/20. P. gingivalis ATCC 33277 cultures were diluted in TSB diluted 1/20 to have a final concentration of 1 × 10^8 cells/ml. Next, 100 μl was added to each well of the microtiter plate, resulting in a total volume of 200 μl medium per well (final concentration range of compounds, 800 μM [2% DMSO or ethanol] to 0.4 μM [0.001% DMSO or ethanol]). In the next step, the pegged lid was placed on the microtiter plate and the plate was incubated for 24 h or 48 h at 25°C or 37°C without shaking. At 37°C, the plates were placed in a sealed container with wet towels on the bottom to prevent evaporation of the growth medium. Biofilms of P. gingivalis ATCC 33277 were grown anaerobically at 37°C for 72 h. During this incubation period, biofilms were formed on the surface of the pegs. After incubation, the optical density at 600 nm (OD600) for the planktonic cells in the microtiter plate was measured using a Synergy MX multimode reader (BioTek, Winooski, VT). This gives a first indication of the effect of the compounds on planktonic growth. For quantification of biofilm formation, the pegs were washed once in 200 μl PBS. The remaining attached bacteria were stained for 30 min with 200 μl 0.1% (wt/vol) crystal violet in an isopropanol-methanol-PBS solution (1:1:18, vol/vol). Excess stain was rinsed off by placing the pegs in a 96-well plate filled with 200 μl distilled water per well. After air drying of the pegs (30 min), the dye bound to the adherent biofilm was extracted with 30% glacial acetic acid (200 μl per well of a 96-well plate). The optical density at 570 nm (OD570) of each well was measured using a Synergy MX multimode reader (BioTek, Winooski, VT). The concentration of each compound needed to inhibit biofilm formation by 50% (BIC50) and the concentration of each compound needed to inhibit planktonic growth by 50% (IC50) were determined from the concentration gradient by using nonlinear curve fitting (GraphPad Prism software, version 5; GraphPad Software, Inc., La Jolla, CA). In the same assay, the effect on planktonic growth was evaluated. The activity was considered biofilm specific if the BIC50 was at least two times lower than the IC50. Data represent the means from at least 3 technical repeats with the corresponding 95% confidence intervals (provided in the supplemental material).

The next data set concerns B. cepacia LMG1222T. Described as above. To be noted: Burkholderia cepacia, 25°C. It is filed as cell-based, Burkholderia cepacia. Here is the method:
as §1

The subject of another data set is S. epidermidis. Described as above. The format is cell-based, Staphylococcus epidermidis. The conditions noted are these: Staphylococcus epidermidis, 37°C. Here is the method: as §1
Data set [1] has as its system S. aureus ATCC 6538 + S. epidermidis. Description: Mixed-species S. aureus-S. epidermidis biofilm assay (peg, crystal violet). It is filed as cell-based, Staphylococcus aureus + Staphylococcus epidermidis. The conditions noted are these: 37°C. Here is the method: Overnight cultures of S. aureus ATCC 6538 and S. epidermidis were grown in LB medium and were diluted 1/200 in the same vial of TSB to form a mixed-culture suspension. Next, 2-fold serial dilutions of the compounds (dissolved in 100% DMSO or ethanol) in 100 μl TSB medium per well were prepared in the microtiter plate (Nunc no. 269789) in duplicate or triplicate with a maximum concentration of 1,600 μM and a minimum concentration of 0.8 μM. One hundred microliters of the mixed-culture suspension was added to each well of the microtiter plate, resulting in a total volume of 200 μl medium per well (final concentration range of compounds, 800 μM [2% DMSO or ethanol] to 0.4 μM [0.001% DMSO or ethanol]). The cells were then incubated for 48 h at 37°C, which allowed biofilm formation on the pegs (Nunc no. 269789) of the Calgary biofilm device. After 24 h, fresh medium with compounds was added to the wells, and after 48 h, the biofilm was colored with crystal violet as described above ([74]). The OD570 (biofilm) and OD600 (planktonic) were measured, and the BIC50 and the IC50, respectively, were calculated.

A further data set deals with P. gingivalis ATCC 33277. Briefly: Monospecies bacterial biofilm inhibition, static peg assay (anaerobic, 72 h). The format is cell-based. To be noted: Porphyromonas gingivalis, ATCC33277, P. gingivalis ATCC 33277, 37°C. Here is the method: as §1
For a further data set, the system named is osteoblasts (OB). Briefly: Mammalian cell viability assay, trypan blue staining. It is filed as cell-based. To be noted: 12.5 μM, 6 days of exposure. Here is the method: The viability of two human primary cell types, namely, osteoblasts (OB) and bone marrow-derived mesenchymal stem cells (MSC), was tested according to the ISO 10993-5 standard, as previously described ([76]). Briefly, cells were seeded in 96-well tissue culture test plates (TPP; Trasadingen, Switzerland) at 5 × 10^3 cells/cm^2 in cell culture medium (advanced Dulbecco modified Eagle's medium [DMEM]) supplemented with 10% serum, 1× GlutaMAX, and 0.05 mg/ml gentamicin and were allowed to attach overnight. On the next day, the cells were exposed to (i) cell culture medium and medium with the corresponding control (0.5% ethanol or DMSO; negative controls), (ii) medium with 0.05% phenol (cytotoxic control), and (iii) medium with compounds (12.5 μM) and incubated for 2 h, 48 h, and 6 days (8 repeats for each condition). At each time point, the numbers of viable and dead cells were determined directly by trypan blue staining and indirectly by measuring metabolic activity with 3-(4,5-dimethylthiazol-2-yl)-2,5-diphenyltetrazolium bromide (MTT) staining.
The medium was removed from the wells, 1/3 trypan blue in DMEM was added to the cells, and the cells were incubated for 3 min, after which the trypan blue was removed and DMEM was added to the wells. In each of four wells, two microscopy fields were counted for viable (transparent) and dead (blue) cells.

Setting [2] is: S. liquefaciens MG44, 25°C, read-out: BIC50.
The mark [3] stands for this setting: S. liquefaciens MG44, 25°C, read-out: IC50 (planktonic growth).
Where [4] appears, read: read-out: IC50 (planktonic growth).
The mark [5] stands for this setting: 48 h, mixed S. aureus ATCC 6538 + S. epidermidis biofilm, read-out: BIC50.
[6] abbreviates: 48 h, mixed S. aureus ATCC 6538 + S. epidermidis, read-out: IC50 (planktonic growth).
The mark [7] stands for this setting: mixed S. aureus ATCC 6538 + S. epidermidis biofilm, read-out: BIC50.
The mark [8] stands for this setting: mixed S. aureus ATCC 6538 + S. epidermidis, read-out: IC50 (planktonic growth).

As for `CCCCCn1c(-c2ccccc2)cnc1N` [Compound 1], the IC50 in the data set with S. liquefaciens MG44 (setting [2]) was 168 µM; in the data set with S. liquefaciens MG44 (setting [3]) it was 177 µM; in the data set with B. cepacia LMG1222T (read-out: BIC50), roughly 356 µM; in the data set with B. cepacia LMG1222T (setting [4]), greater than 400 µM; in the data set on S. epidermidis (read-out: BIC50), roughly 202 µM; in the data set on S. epidermidis (setting [4]) it was roughly 329 µM. Also, the IC50 in data set [1] (setting [5]) is 44.2 µM; in data set [1] (setting [6]) it was roughly 356 µM; in the data set on P. gingivalis ATCC 33277 (read-out: BIC50), 13.2 µM; with P. gingivalis ATCC 33277 (setting [4]), 32.1 µM.
Take `CCCCCCCCn1c(-c2ccccc2)cnc1NC1CCCC1` [Compound 8e]: the “proliferation of OB (trypan blue)” value with osteoblasts (OB) was “slightly reduced”. Also, the IC50 in data set [1] (setting [7]) was roughly 3 µM; in data set [1] (setting [8]), roughly 23.6 µM.
Take `CCCCCCCCn1c(-c2ccc(Br)cc2)cnc1NCC(C)C` [Compound 8c]: in the data set on osteoblasts (OB), the “proliferation of OB (trypan blue)” value was “increase in proliferation” and the “viability of OB (trypan blue)” value is “very slightly reduced”. In addition, the IC50 in data set [1] (setting [7]) was 5 µM. Besides, the IC50 in data set [1] (setting [8]) was greater than 400 µM.
Consider `CC(C)CNc1ncc(-c2ccc(Cl)cc2)[nH]1` [Compound 3], for which the IC50 is 10.4 µM in the data set on S. liquefaciens MG44 (MG44, read-out: BIC50); 154 µM in the data set with S. liquefaciens MG44 (MG44, read-out: IC50 (planktonic growth)); 88.1 µM with B. cepacia LMG1222T (read-out: BIC50); greater than 400 µM with B. cepacia LMG1222T (setting [4]); greater than 400 µM with S. epidermidis (read-out: BIC50); 86.2 µM in the data set on S. epidermidis (setting [4]). Further, the IC50 in data set [1] (setting [5]) was roughly 26.3 µM; in data set [1] (setting [6]), roughly 140 µM; with P. gingivalis ATCC 33277 (read-out: BIC50), 5.3 µM; with P. gingivalis ATCC 33277 (setting [4]), 5.1 µM.
Turning to `CCCCCCCCn1c(-c2ccc(Cl)cc2)cnc1NC1CCCC1` [Compound 8f], the IC50 in data set [1] (setting [7]) is 2 µM; in data set [1] (setting [8]), roughly 22.5 µM.
For the molecule `Clc1ccc(-c2cnc(NC3CCCC3)[nH]2)cc1` [Compound 5], the IC50 with S. liquefaciens MG44 (setting [2]) is 8.8 µM; in the data set with S. liquefaciens MG44 (setting [3]), 125 µM; in the data set with B. cepacia LMG1222T (read-out: BIC50) it was 331 µM; with B. cepacia LMG1222T (setting [4]) it was greater than 400 µM; in the data set with S. epidermidis (read-out: BIC50), greater than 400 µM; in the data set with S. epidermidis (setting [4]), 39.5 µM. In addition, the IC50 in data set [1] (setting [5]) was roughly 66.6 µM; in data set [1] (setting [6]) it was roughly 91.7 µM; in the data set with P. gingivalis ATCC 33277 (read-out: BIC50), 5.7 µM; in the data set on P. gingivalis ATCC 33277 (setting [4]), 4 µM.
Turning to `CCCCCCCCn1c(-c2ccc(Cl)c(Cl)c2)cnc1NCC(C)C` [Compound 8d], the “proliferation of OB (trypan blue)” value in the data set with osteoblasts (OB) is recorded as “increase in proliferation”. Further, the IC50 in data set [1] (setting [7]) and in data set [1] (setting [8]) was greater than 400 µM each time.
Consider `CCCCCCCCn1c(-c2ccc(Cl)c(Cl)c2)cnc1NC1CCCC1` [Compound 8h], for which, in the data set on osteoblasts (OB), the “proliferation of OB (trypan blue)” value is recorded as “increase in proliferation”. Also, the IC50 in data set [1] (setting [7]) is 4.9 µM; in data set [1] (setting [8]), roughly 25.1 µM.
For `Brc1ccc(-c2cnc(NCCn3cc(C4CC4)nn3)[nH]2)cc1` [Compound 6], the IC50 with S. liquefaciens MG44 (setting [2]) was 63.3 µM; in the data set with S. liquefaciens MG44 (setting [3]), greater than 400 µM; with B. cepacia LMG1222T (read-out: BIC50) it was greater than 400 µM; with B. cepacia LMG1222T (setting [4]) it was greater than 400 µM; with S. epidermidis (read-out: BIC50), greater than 400 µM; in the data set with S. epidermidis (setting [4]), greater than 400 µM. For the same molecule, the IC50 is 33.9 µM in data set [1] (setting [5]), roughly 392 µM in data set [1] (setting [6]), 18.1 µM in the data set on P. gingivalis ATCC 33277 (read-out: BIC50) and 19.5 µM in the data set with P. gingivalis ATCC 33277 (setting [4]).
Regarding `CCCCCCCCn1c(-c2ccc(Cl)cc2)cnc1N` [Compound 2], the IC50 in the data set with S. liquefaciens MG44 (setting [2]) is 18.8 µM; with S. liquefaciens MG44 (setting [3]), 38 µM; with B. cepacia LMG1222T (read-out: BIC50), 145 µM; in the data set on B. cepacia LMG1222T (setting [4]), greater than 400 µM; in the data set on S. epidermidis (setting [4]) it was roughly 11.1 µM; in data set [1] (setting [5]), roughly 7.2 µM. Besides, the IC50 in data set [1] (setting [6]) is roughly 9.9 µM; with P. gingivalis ATCC 33277 (read-out: BIC50), 3.9 µM; with P. gingivalis ATCC 33277 (setting [4]) it was 6 µM.
As for `CCCCNc1ncc(-c2ccc(Br)cc2)[nH]1` [Compound 4], the IC50 with S. liquefaciens MG44 (setting [2]) was 4.4 µM; in the data set with S. liquefaciens MG44 (setting [3]), 118 µM; with B. cepacia LMG1222T (read-out: BIC50), 189 µM; with B. cepacia LMG1222T (setting [4]), greater than 400 µM; in the data set on S. epidermidis (read-out: BIC50), greater than 400 µM; with S. epidermidis (setting [4]) it was 54.4 µM. For the same molecule, the IC50 in data set [1] (setting [5]) is 6.8 µM; in data set [1] (setting [6]) it was roughly 118 µM; with P. gingivalis ATCC 33277 (read-out: BIC50), 3.7 µM; in the data set on P. gingivalis ATCC 33277 (setting [4]), 8.2 µM.
With `CCCCCCCCn1c(-c2ccc(Br)cc2)cnc1NC1CCCC1` [Compound 8g], the “proliferation of OB (trypan blue)” value with osteoblasts (OB) was “increase in proliferation”. Also, the IC50 in data set [1] (setting [7]) was roughly 5.6 µM; in data set [1] (setting [8]), 15.5 µM.
For `CCCCCCCCn1c(-c2ccc(Cl)cc2)cnc1NCC(C)C` [Compound 8b], the values for the IC50 in data set [1] (setting [7]) and in data set [1] (setting [8]) were 1.1 µM and roughly 22.2 µM, respectively.
Turning to `CCCCCCCCn1c(-c2ccccc2)cnc1NCC(C)C` [Compound 8a], the “proliferation of OB (trypan blue)” value in the data set on osteoblasts (OB) is given as “slightly reduced”. Further, the IC50 in data set [1] (setting [8]) is roughly 26.1 µM.
